In patent US12180226B2, “Spirotricycle RIPK1 inhibitors and methods of uses thereof” (Merck Sharp & Dohme LLC, priority 2021, dated 2024):

biological target: RIPK1 (recombinant GST-RIPK1 kinase domain, residues 1-327) (Homo sapiens (Human), UniProt Q13546); test: RIPK1-ADP-Glo Enzymatic Assay; format: biochemical; details: ADP-Glo; 25 nM GST-RIPK1, 300 μM ATP; assay lower limit ~25 nM; read-out: RIPK1 V0 Ec50
How it was run: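 Enzyme from baculovirus-infected Sf21 cells, 25 nM final, was pre-incubated 30 min at ambient temperature with compound (ten-point, 1:3 dilution from 100000 nM, 1% DMSO), then reacted 150 min with 300 μM ATP and 3 μM dephosphorylated MBP. ADP was read by luminescence; EC50 from four-parameter fit.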

RIPK1 (recombinant GST-RIPK1 kinase domain, residues 1-327), sequence (Q13546 1-327): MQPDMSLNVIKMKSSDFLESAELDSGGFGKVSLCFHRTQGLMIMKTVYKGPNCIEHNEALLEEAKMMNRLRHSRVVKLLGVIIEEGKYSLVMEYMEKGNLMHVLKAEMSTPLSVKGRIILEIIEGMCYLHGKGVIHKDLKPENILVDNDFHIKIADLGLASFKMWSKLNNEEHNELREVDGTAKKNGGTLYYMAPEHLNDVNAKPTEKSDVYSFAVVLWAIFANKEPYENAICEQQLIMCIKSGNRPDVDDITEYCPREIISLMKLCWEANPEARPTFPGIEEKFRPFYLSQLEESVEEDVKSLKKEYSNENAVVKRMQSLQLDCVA

EC50 | SMILES
< 25 nM | Cc1ccc(F)c(C(=O)N2CCC3(CC2)O[C@@H]2CC[C@@H](c4cccc(F)c4)N2C3=O)c1 [Example 6.133, (5′S,7a′R)-1-(2-fluoro-5-methylbenzene-1-carbonyl)-5′-(3-fluoro-phenyl)tetrahydro-3′H-spiro[piperidine-4,2′-pyrrolo[2,1-b] [1,3]oxazol]-3′-one]
< 25 nM | N#Cc1ccc(N2CCC3(CC2)O[C@@H]2CC[C@@H](c4cccc(F)c4)N2C3=O)c(F)c1 [Example 4.53, 3-fluoro-4-[(5′S,7a′R)-5′-(3-fluorophenyl)-3′-oxotetrahydro-1H,3′H-spiro[piperidine-4,2′-pyrrolo[2,1-b] [1,3]oxazol]-1-yl]benzonitrile]
38.1 nM | N#Cc1cc(N2CCC3(CC2)SC2CCC(c4cc(F)cc(F)c4)N2C3=O)ncn1 (stereo not drawn) [Example 4.111, 6-(5′-(3,5-difluorophenyl)-3′-oxotetrahydro-3′H-spiro[piperidine-4,2′-pyrrolo[2,1-b]thiazol]-1-yl)pyrimidine-4-carbonitrile]
